Measured values published in patent US20220119354A1, “DIAMINO-SUBSTITUTED PYRIDINES AND PYRIMIDINES AS HERBICIDES” (FMC Corporation, priority 2019, published 2022).

Assays:
Assay type in all cases: in vivo
[1] = system: wheat (Triticum aestivum); assay: Test A postemergence, wheat; conditions: 0 to 100 scale
Procedure, shortened: (§1)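 Post: seedlings 2–10 cm, 1–2 leaves, foliar spray. Pre: soil spray after sowing in loam/sand blend. Both formulated in non-phytotoxic solvent with surfactant; injury scored visually 0–100 after ~10 d.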

[2] = system: barnyardgrass (Echinochloa crus-galli); assay: Test A postemergence, barnyardgrass; conditions: 0 to 100 scale
Procedure, shortened: as §1

kochia (Kochia scoparia) [3] = assay: Test A preemergence, kochia; conditions: 0 to 100 scale
Procedure, shortened: as §1

[4] = system: pigweed (Amaranthus retroflexus); assay: Test A preemergence, pigweed; conditions: 0 to 100 scale
Procedure, shortened: as §1

[5] = system: galium (catchweed bedstraw, Galium aparine); assay: Test A postemergence, galium; conditions: 0 to 100 scale
Procedure, shortened: as §1

[6] = system: barnyardgrass (Echinochloa crus-galli); assay: Test A preemergence, barnyardgrass; conditions: 0 to 100 scale
Procedure, shortened: as §1

[7] = system: blackgrass (Alopecurus myosuroides); assay: Test A postemergence, blackgrass; conditions: 0 to 100 scale
Procedure, shortened: as §1

corn (Zea mays) = assay: Test A postemergence, corn; conditions: 0 to 100 scale
Procedure, shortened: as §1

[8] = system: ryegrass, Italian (Lolium multiflorum); assay: Test A postemergence, Italian ryegrass; conditions: 0 to 100 scale
Procedure, shortened: as §1

rice (Oryza sativa) = assay: Test B flooded paddy test, rice; conditions: Flood, 250 g ai/ha, applied to paddy water, 2-leaf stage, visual evaluation after 13 to 15 d
Procedure, shortened: (§2)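 Plants grown to 2-leaf stage. Compounds applied directly into paddy water flooded 3 cm above soil, with that depth kept throughout. After 13–15 d in greenhouse, visual rating versus controls on a 0–100 scale (0 no effect, 100 complete control).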

[9] = system: foxtail, giant (Setaria faberii); assay: Test A postemergence, giant foxtail; conditions: 0 to 100 scale
Procedure, shortened: as §1

[10] = system: ducksalad (Heteranthera limosa); assay: Test B flooded paddy test, ducksalad; conditions: Flood, 250 g ai/ha, applied to paddy water, 2-leaf stage, visual evaluation after 13 to 15 d
Procedure, shortened: as §2

kochia (Kochia scoparia) [11] = assay: Test A postemergence, kochia; conditions: 0 to 100 scale
Procedure, shortened: as §1

[12] = system: sedge, umbrella (small-flower umbrella sedge, Cyperus difformis); assay: Test B flooded paddy test, umbrella sedge; conditions: Flood, 250 g ai/ha, applied to paddy water, 2-leaf stage, visual evaluation after 13 to 15 d
Procedure, shortened: as §2

[13] = system: foxtail, giant (Setaria faberii); assay: Test A preemergence, giant foxtail; conditions: 0 to 100 scale
Procedure, shortened: as §1

[14] = system: ragweed (common ragweed, Ambrosia elatior); assay: Test A preemergence, ragweed; conditions: 0 to 100 scale
Procedure, shortened: as §1

[15] = system: pigweed (Amaranthus retroflexus); assay: Test A postemergence, pigweed; conditions: 0 to 100 scale
Procedure, shortened: as §1

[16] = system: ryegrass, Italian (Lolium multiflorum); assay: Test A preemergence, Italian ryegrass; conditions: 0 to 100 scale
Procedure, shortened: as §1

[17] = system: barnyardgrass (Echinochloa crus-galli); assay: Test B flooded paddy test, barnyardgrass; conditions: Flood, 250 g ai/ha, applied to paddy water, 2-leaf stage, visual evaluation after 13 to 15 d
Procedure, shortened: as §2

[18] = system: ragweed (common ragweed, Ambrosia elatior); assay: Test A postemergence, ragweed; conditions: 0 to 100 scale
Procedure, shortened: as §1

C[C@@H](Nc1ncc(C(F)(F)F)c(N)n1)c1cc2cc(F)ccc2o1 [Compound 9]
40: Plant response rating, Foxtail, Giant ([13]; 125 g ai/ha)
30: Plant response rating, Blackgrass ([7]; 500 g ai/ha) | Plant response rating, Ryegrass, Italian ([8]; 500 g ai/ha)
10: Plant response rating, Barnyardgrass ([2]; 125 g ai/ha)
60: Plant response rating, Kochia (kochia (Kochia scoparia) [3]; 125 g ai/ha) | Plant response rating, Ragweed ([18]; 125 g ai/ha)
90: Plant response rating, Foxtail, Giant ([9]; 500 g ai/ha) | Plant response rating, Kochia (kochia (Kochia scoparia) [11]; 500 g ai/ha) | Plant response rating, Foxtail, Giant ([13]; 500 g ai/ha) | Plant response rating, Ragweed ([14]; 500 g ai/ha) | Plant response rating, Pigweed ([15]; 125 g ai/ha) | Plant response rating, Pigweed ([15]; 500 g ai/ha)
70: Plant response rating, Barnyardgrass ([2]; 500 g ai/ha) | Plant response rating, Kochia (kochia (Kochia scoparia) [3]; 500 g ai/ha)
80: Plant response rating, Galium ([5]; 125 g ai/ha) | Plant response rating, Galium ([5]; 500 g ai/ha) | Plant response rating, Barnyardgrass ([6]; 125 g ai/ha) | Plant response rating, Barnyardgrass ([6]; 500 g ai/ha) | Plant response rating, Kochia (kochia (Kochia scoparia) [11]; 125 g ai/ha) | Plant response rating, Ragweed ([18]; 500 g ai/ha)
0: Plant response rating, Wheat ([1]; 125 g ai/ha) | Plant response rating, Wheat ([1]; 500 g ai/ha) | Plant response rating, Blackgrass ([7]; 125 g ai/ha) | Plant response rating, Corn (corn (Zea mays); 125 g ai/ha) | Plant response rating, Ryegrass, Italian ([8]; 125 g ai/ha) | Plant response rating, Rice (0 to 100 scale, 0 is no effect, 100 is complete control) (rice (Oryza sativa)) | Plant response rating, Foxtail, Giant ([9]; 125 g ai/ha) | Plant response rating, Ducksalad (0 to 100 scale, 0 is no effect, 100 is complete control) [10] | Plant response rating, Sedge, Umbrella (0 to 100 scale, 0 is no effect, 100 is complete control) [12] | Plant response rating, Ragweed ([14]; 125 g ai/ha) | Plant response rating, Ryegrass, Italian ([16]; 125 g ai/ha) | Plant response rating, Barnyardgrass (0 to 100 scale, 0 is no effect, 100 is complete control) [17]
100: Plant response rating, Pigweed ([4]; 125 g ai/ha) | Plant response rating, Pigweed ([4]; 500 g ai/ha)
20: Plant response rating, Corn (corn (Zea mays); 500 g ai/ha)
50: Plant response rating, Ryegrass, Italian ([16]; 500 g ai/ha)

Cc1ccc2oc([C@@H](C)Nc3ncc(C(F)(F)F)c(N)n3)cc2c1 [Compound 10]
80: Plant response rating, Pigweed ([15]; 125 g ai/ha) | Plant response rating, Ragweed ([18]; 500 g ai/ha)
40: Plant response rating, Foxtail, Giant ([9]; 500 g ai/ha)
70: Plant response rating, Galium ([5]; 500 g ai/ha)
90: Plant response rating, Pigweed ([15]; 500 g ai/ha)
20: Plant response rating, Barnyardgrass ([2]; 500 g ai/ha) | Plant response rating, Barnyardgrass ([6]; 125 g ai/ha) | Plant response rating, Blackgrass ([7]; 500 g ai/ha) | Plant response rating, Ryegrass, Italian ([16]; 500 g ai/ha) | Plant response rating, Ragweed ([18]; 125 g ai/ha)
50: Plant response rating, Galium ([5]; 125 g ai/ha) | Plant response rating, Ragweed ([14]; 500 g ai/ha)
60: Plant response rating, Pigweed ([4]; 500 g ai/ha) | Plant response rating, Foxtail, Giant ([13]; 500 g ai/ha)
30: Plant response rating, Barnyardgrass ([6]; 500 g ai/ha)
0: Plant response rating, Wheat ([1]; 125 g ai/ha) | Plant response rating, Wheat ([1]; 500 g ai/ha) | Plant response rating, Barnyardgrass ([2]; 125 g ai/ha) | Plant response rating, Kochia (kochia (Kochia scoparia) [3]; 125 g ai/ha) | Plant response rating, Kochia (kochia (Kochia scoparia) [3]; 500 g ai/ha) | Plant response rating, Pigweed ([4]; 125 g ai/ha) | Plant response rating, Blackgrass ([7]; 125 g ai/ha) | Plant response rating, Corn (corn (Zea mays); 125 g ai/ha) | Plant response rating, Corn (corn (Zea mays); 500 g ai/ha) | Plant response rating, Ryegrass, Italian ([8]; 125 g ai/ha) | Plant response rating, Ryegrass, Italian ([8]; 500 g ai/ha) | Plant response rating, Rice (0 to 100 scale, 0 is no effect, 100 is complete control) (rice (Oryza sativa)) | Plant response rating, Foxtail, Giant ([9]; 125 g ai/ha) | Plant response rating, Ducksalad (0 to 100 scale, 0 is no effect, 100 is complete control) [10] | Plant response rating, Kochia (kochia (Kochia scoparia) [11]; 125 g ai/ha) | Plant response rating, Kochia (kochia (Kochia scoparia) [11]; 500 g ai/ha) | Plant response rating, Sedge, Umbrella (0 to 100 scale, 0 is no effect, 100 is complete control) [12] | Plant response rating, Foxtail, Giant ([13]; 125 g ai/ha) | Plant response rating, Ragweed ([14]; 125 g ai/ha) | Plant response rating, Ryegrass, Italian ([16]; 125 g ai/ha) | Plant response rating, Barnyardgrass (0 to 100 scale, 0 is no effect, 100 is complete control) [17]

Cc1cc2cc([C@@H](C)Nc3ncc(C(F)(F)F)c(N)n3)oc2cc1C [Compound 11]
30: Plant response rating, Barnyardgrass ([2]; 500 g ai/ha) | Plant response rating, Kochia (kochia (Kochia scoparia) [11]; 125 g ai/ha) | Plant response rating, Ryegrass, Italian ([16]; 500 g ai/ha)
50: Plant response rating, Galium ([5]; 125 g ai/ha) | Plant response rating, Foxtail, Giant ([9]; 500 g ai/ha)
80: Plant response rating, Foxtail, Giant ([13]; 500 g ai/ha) | Plant response rating, Pigweed ([15]; 125 g ai/ha) | Plant response rating, Pigweed ([15]; 500 g ai/ha) | Plant response rating, Ragweed ([18]; 500 g ai/ha)
70: Plant response rating, Galium ([5]; 500 g ai/ha) | Plant response rating, Barnyardgrass ([6]; 500 g ai/ha) | Plant response rating, Kochia (kochia (Kochia scoparia) [11]; 500 g ai/ha)
40: Plant response rating, Corn (corn (Zea mays); 125 g ai/ha) | Plant response rating, Foxtail, Giant ([13]; 125 g ai/ha) | Plant response rating, Ragweed ([18]; 125 g ai/ha)
20: Plant response rating, Barnyardgrass ([2]; 125 g ai/ha) | Plant response rating, Pigweed ([4]; 125 g ai/ha) | Plant response rating, Barnyardgrass ([6]; 125 g ai/ha) | Plant response rating, Blackgrass ([7]; 500 g ai/ha) | Plant response rating, Ryegrass, Italian ([16]; 125 g ai/ha)
100: Plant response rating, Pigweed ([4]; 500 g ai/ha)
0: Plant response rating, Wheat ([1]; 125 g ai/ha) | Plant response rating, Wheat ([1]; 500 g ai/ha) | Plant response rating, Kochia (kochia (Kochia scoparia) [3]; 125 g ai/ha) | Plant response rating, Blackgrass ([7]; 125 g ai/ha) | Plant response rating, Corn (corn (Zea mays); 500 g ai/ha) | Plant response rating, Ryegrass, Italian ([8]; 125 g ai/ha) | Plant response rating, Ryegrass, Italian ([8]; 500 g ai/ha) | Plant response rating, Rice (0 to 100 scale, 0 is no effect, 100 is complete control) (rice (Oryza sativa)) | Plant response rating, Foxtail, Giant ([9]; 125 g ai/ha) | Plant response rating, Ducksalad (0 to 100 scale, 0 is no effect, 100 is complete control) [10] | Plant response rating, Sedge, Umbrella (0 to 100 scale, 0 is no effect, 100 is complete control) [12] | Plant response rating, Ragweed ([14]; 125 g ai/ha) | Plant response rating, Barnyardgrass (0 to 100 scale, 0 is no effect, 100 is complete control) [17]
10: Plant response rating, Kochia (kochia (Kochia scoparia) [3]; 500 g ai/ha)
90: Plant response rating, Ragweed ([14]; 500 g ai/ha)
